“And” between values parts separate entries of the source, which are not always exact repeats. Identical values can stand only once. Counter-ions that a name gives are not always drawn. Like-named read-outs stand apart in the source and are kept apart here.
Target: T1, Human ATX protein (Homo sapiens, UniProt Q13822)
T1 construct: made in house
Test: ATX biochemical assay (FRET, FS-3 substrate)
Details: FS-3 2 μM, ATX 1.0 μg/mL, 30 minutes preincubation, 2 hours reaction at room temperature
How it was run: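 In-house human ATX (1.0 μg/mL final) was preincubated with compound for 30 min at room temperature in Tris buffer pH 7.4 with 1 mg/mL fatty acid free-BSA. FS-3 substrate (2 μM final) was then hydrolysed for 2 hours at room temperature, protected from light, and read as fluorescence at ex 485/em 538 nm.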

Structure (SMILES) | IC50 (FRET assay, read-out: IC50) | IC50 (IC50, FRET assay)
COC(=O)C1CCC(C(=O)N2CCc3c(C(F)(F)F)nn(Cc4ccc(F)cc4)c3C2)CC1 (centres unmarked) [Example 1-22, Methyl 4-(1-(4-fluorobenzyl)-3-(trifluoromethyl)-4,5,6,7-tetrahydro-1H-pyrazolo[3,4-c]pyridine-6-carbonyl)cyclohexanecarboxylate] | > 10000 nM | –
O=C(CC1CN2CCC1CC2)N1CCc2c(C(F)(F)F)nn(Cc3ccc(F)cc3)c2C1 (centres unmarked) [Example 1-37, 1-(1-(4-Fluorobenzyl)-3-(trifluoromethyl)-4,5-dihydro-1H-pyrazolo[3,4-c]pyridin-6(7H)-yl)-2-(quinuclidin-3-yl)ethanone TFA salt] | – | ≤ 100 nM
CC(C)N1CC(CC(=O)N2CCc3c(C(F)(F)F)nn(Cc4ccc(Cl)cc4F)c3C2)C[C@H]1C(=O)O (stereo partly drawn) [Example 10-12, (2S)-4-(2-(1-(4-Chloro-2-fluorobenzyl)-3-(trifluoromethyl)-4,5-dihydro-1H-pyrazolo[3,4-c]pyridin-6(7H)-yl)-2-oxoethyl)-1-isopropylpyrrolidine-2-carboxylic acid TFA salt] | ≤ 100 nM | –
COc1ccc(Cn2nc(C(F)(F)F)c3c2CN(C(=O)C[C@H]2CC[C@H](C(=O)O)CC2)CC3)cc1 [Example 5-15, trans-4-(2-(1-(4-Methoxylbenzyl)-3-(trifluoromethyl)-4,5-dihydro-1H-pyrazolo[3,4-c]pyridin-6(7H)-yl)-2-oxoethyl)cyclohexanecarboxylic acid] | ≤ 100 nM | –
CC1CC(CC(=O)N2CCc3c(C(F)(F)F)nn(Cc4ccc(Cl)cc4F)c3C2)CCN1 (centres unmarked) [Example 9-5, 1-(1-(4-Chloro-2-fluorobenzyl)-3-(trifluoromethyl)-4,5-dihydro-1H-pyrazolo[3,4-c]pyridin-6(7H)-yl)-2-(2-methylpiperidin-4-yl)ethanone TFA salt] | ≤ 100 nM | –
O=C(C[C@H]1CC[C@H](C(=O)O)CC1)N1CCc2c(C(F)(F)F)nn(Cc3ccncc3)c2C1 [Example 5-24, trans-4-(2-Oxo-2-(1-(pyridin-4-ylmethyl)-3-(trifluoromethyl)-4,5-dihydro-1H-pyrazolo[3,4-c]pyridin-6(7H)-yl)ethyl)cyclohexanecarboxylic acid] | ≤ 100 nM | –
O=C(O)C1CCC(CC(=O)N2CCc3c(C(F)(F)F)nn(-c4ccccc4)c3C2)CC1 (stereo in doubt) [Example 5-21, cis-4-(2-Oxo-2-(1-phenyl-3-(trifluoromethyl)-4,5-dihydro-1H-pyrazolo[3,4-c]pyridin-6(7H)-yl)ethyl)cyclohexanecarboxylic acid] | > 500 nM and ≤ 10000 nM | –
O=C(C[C@H]1CC[C@@H](C(=O)O)CC1)N1CCc2c(C(F)(F)F)nn(Cc3ccccc3)c2C1 [Example 7-12, cis-4-(2-(1-benzyl-3-(trifluoromethyl)-4,5-dihydro-1H-pyrazolo[3,4-c]pyridin-6(7H)-yl)-2-oxoethyl)cyclohexanecarboxylic acid] | ≤ 100 nM | –
O=C(O)C1CC2CN(CC(=O)N3CCc4c(C(F)(F)F)nn(Cc5ccc(Cl)cc5F)c4C3)CC2C1 (centres unmarked) [Example 13-9, 2-(2-(1-(4-Chloro-2-fluorobenzyl)-3-(trifluoromethyl)-4,5-dihydro-1H-pyrazolo[3,4-c]pyridin-6(7H)-yl)-2-oxoethyl)octahydrocyclopenta[c]pyrrole-5-carboxylic acid TFA salt] | ≤ 100 nM | –
O=C(CN[C@H]1C[C@@H](C(=O)O)C1)N1CCc2c(C(F)(F)F)nn(Cc3ccc(F)cc3)c2C1 [Example 13-28, cis-3-(2-(1-(4-Fluorobenzyl)-3-(trifluoromethyl)-4,5-dihydro-1H-pyrazolo[3,4-c]pyridin-6(7H)-yl)-2-oxoethylamino)cyclobutanecarboxylic acid TFA salt] | ≤ 100 nM | –

Continued, in another order:

IC50 (FRET assay, read-out: IC50) | Structure (SMILES) | IC50 (IC50, FRET assay)
≤ 100 nM | CCOC(=O)C1CCC(CC(=O)N2CCc3c(C(F)(F)F)nn(Cc4cccc(F)c4)c3C2)CC1 (centres unmarked) [Example 1-18, Ethyl 4-(2-(1-(3-fluorobenzyl)-3-(trifluoromethyl)-4,5-dihydro-1H-pyrazolo[3,4-c]pyridin-6(7H)-yl)-2-oxoethyl)cyclohexanecarboxylate] | –
≤ 100 nM | CC(C)(C)OC(=O)N1CC(CC(=O)N2CCc3c(C(F)(F)F)nn(Cc4ccc(Cl)cc4F)c3C2)C1 [Example 8-3, tert-Butyl 3-(2-(1-(4-chloro-2-fluorobenzyl)-3-(trifluoromethyl)-4,5-dihydro-1H-pyrazolo[3,4-c]pyridin-6(7H)-yl)-2-oxoethyl)azetidine-1-carboxylate] | –
≤ 100 nM | CCOC(=O)C1CCC(CC(=O)N2CCc3c(C(F)(F)F)nn(Cc4ccccc4F)c3C2)CC1 (centres unmarked) [Example 1-19, Ethyl 4-(2-(1-(2-fluorobenzyl)-3-(trifluoromethyl)-4,5-dihydro-1H-pyrazolo[3,4-c]pyridin-6(7H)-yl)-2-oxoethyl)cyclohexanecarboxylate] | –
≤ 100 nM | N[C@H]1CC[C@@H](CC(=O)N2CCc3c(C(F)(F)F)nn(Cc4ccc(Cl)cc4F)c3C2)CC1 [Example 9-17, 2-(cis-4-Aminocyclohexyl)-1-(1-(4-chloro-2-fluorobenzyl)-3-(trifluoromethyl)-4,5-dihydro-1H-pyrazolo[3,4-c]pyridin-6(7H)-yl)ethanone TFA salt] | –
≤ 100 nM | O=C(O)C[C@H]1CC[C@@H](CC(=O)N2CCc3c(C(F)(F)F)nn(Cc4ccc(F)cc4)c3C2)CC1 [Example 5-49, 2-(cis-4-(2-(1-(4-Fluorobenzyl)-3-(trifluoromethyl)-4,5-dihydro1H-pyrazolo[3,4-c]pyridin-6(7H)-yl)-2-oxoethyl)cyclohexyl)acetic acid] | –
≤ 100 nM | O=C(C[C@H]1CC[C@H](C(=O)O)CC1)N1CCc2c(C(F)(F)F)nn(Cc3cc(F)c(F)cc3F)c2C1 [Example 5-32, trans-4-(2-(1-(2,4,5-Trifluorobenzyl)-3-(trifluoromethyl)-4,5-dihydro-1H-pyrazolo[3,4-c]pyridin-6(7H)-yl)-2-oxoethyl)cyclohexanecarboxylic acid] | –
≤ 100 nM | CCOC(=O)[C@H]1CC[C@H](CC(=O)N2CCc3c(C(F)(F)F)nn(CC4CCC(C)CC4)c3C2)CC1 (stereo partly drawn) [Example 1-48, trans-Ethyl 4-(2-(1-((4-methylcyclohexyl)methyl)-3-(trifluoromethyl)-4,5-dihydro-1H-pyrazolo[3,4-c]pyridin-6(7H)-yl)-2-oxoethyl) cyclohexanecarboxylate] | –
≤ 100 nM | O=C(CC1CCC(N2CCCC2)CC1)N1CCc2c(C(F)(F)F)nn(Cc3ccc(F)cc3)c2C1 (centres unmarked) [Example 22-9, 1-(1-(4-Fluorobenzyl)-3-(trifluoromethyl)-4,5-dihydro-1H-pyrazolo[3,4-c]pyridin-6(7H)-yl)-2-(4-(pyrrolidin-1-yl)cyclohexyl)ethanone TFA salt] | –
≤ 100 nM | CC1(C)C(NCC(=O)N2CCc3c(C(F)(F)F)nn(Cc4ccc(Cl)cc4F)c3C2)CC1C(=O)O (centres unmarked) [Example 13-11, 3-((2-(1-(4-Chloro-2-fluorobenzyl)-3-(trifluoromethyl)-4,5-dihydro-1H-pyrazolo[3,4-c]pyridin-6(7H)-yl)-2-oxoethyl)amino)-2,2-dimethylcyclobutanecarboxylic acid TFA salt] | –
≤ 100 nM | O=C(C[C@H]1CC[C@@H](C(=O)O)CC1)N1CCc2c(C(F)(F)F)nn(CCC3CCCCC3)c2C1 [Example 7-21, cis-4-(2-(1-(2-Cyclohexylethyl)-3-(trifluoromethyl)-4,5-dihydro-1H-pyrazolo[3,4-c]pyridin-6(7H)-yl)-2-oxoethyl)cyclohexanecarboxylic acid] | –

— patent publication US10144732B2 (BIOGEN MA INC., priority 2014, dated 2018)
